Assay results reported in ChEMBL document CHEMBL4680281, “Recent Advances on Nitrones Design for Stroke Treatment” (J Med Chem, 2020).

Columns and labels:
Rattus norvegicus = experiment: Neuroprotective activity in Sprague-Dawley rat model of permanent middle cerebral artery occlusion assessed as infarction volume at 80 mg/kg, ip administered 2 hr post MCAO induction and measured 14 hrs post MCAO challenge by TTC staining based assay (reference value: 27.5%); assay type: functional; conditions: time 12 hrs
[1] = Antioxidant activity assessed as SIN1-induced ONOO scavenging activity at 1 uM incubated for 1250 secs by chemiluminescence method relative to control; assay type: functional; conditions: time 1250.0 sec
[2] = Antioxidant activity assessed as SIN1-induced ONOO scavenging activity at 1 mM incubated for 1250 secs by chemiluminescence method relative to control; assay type: functional; conditions: time 1250.0 sec
[3] = Drug concentration in Sprague-Dawley rat brain at 80 mg/kg, iv measured after 5 mins by reverse-phase HPLC method; assay type: ADME, organism-based; conditions: read-out: Ct

Cc1nc(C)c(/C=[N+](\[O-])C(C)(C)C)nc1C
Activity (Rattus norvegicus): 20.3%
Activity [1]: 35.3%
Activity [2]: 94.7%
concentration at 5 min [3]: 650 µM
